Reference: ChEMBL document CHEMBL1201862, “PubChem BioAssay data set” (2004)
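1) Cells in 96-well plates. 2) Compound, 48 h, 5 concentrations. 3) Linear interpolation between surrounding doses. 4) Unreached endpoint = highest concentration. Here, GI50 denotes the concentration required for 50% inhibition of growth.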 Calls of active or inactive are those of the source. No stated cut-off is given here; in the data, active = GI50 up to about 1.1 µM and inactive = higher.

Columns and labels:
Experiment in all cases: NCI-60 cell line screen, 48 h
U-251 = tested on: U-251
SR = tested on: SR
NCI-H226 = tested on: NCI-H226
M14 = tested on: M14
OVCAR-4 = tested on: OVCAR-4
PC-3 = tested on: PC-3
A498 = tested on: A498
SK-OV-3 = tested on: SK-OV-3
DU-145 = tested on: DU-145
MDA-MB-231 = tested on: MDA-MB-231
UO-31 = tested on: UO-31
EKVX = tested on: EKVX
COLO 205 = tested on: COLO 205
OVCAR-5 = tested on: OVCAR-5
SF-539 = tested on: SF-539
HCC 2998 = tested on: HCC 2998
MCF7 = tested on: MCF7
HL-60 = tested on: HL-60
SNB-19 = tested on: SNB-19
MDA-N = tested on: MDA-N

SMILES | GI50 (U-251) | GI50 (SR) | GI50 (NCI-H226) | GI50 (M14) | GI50 (OVCAR-4) | GI50 (PC-3) | GI50 (A498) | GI50 (SK-OV-3) | GI50 (DU-145) | GI50 (MDA-MB-231) | GI50 (UO-31) | GI50 (EKVX) | GI50 (COLO 205) | GI50 (OVCAR-5) | GI50 (SF-539) | GI50 (HCC 2998) | GI50 (MCF7) | GI50 (HL-60) | GI50 (SNB-19) | GI50 (MDA-N)
CCOC(=O)/C(=C\n1c(=O)sc2ccccc21)C(=O)c1ccccc1 | > 100 µM (inactive) | 58.7 µM (inactive) | > 100 µM (inactive) | > 100 µM (inactive) | > 100 µM (inactive) | > 100 µM (inactive) | > 100 µM (inactive) | > 100 µM (inactive) | > 100 µM (inactive) | 63 µM (inactive) | 26 µM (inactive) | > 100 µM (inactive) | > 100 µM (inactive) | > 100 µM (inactive) | > 100 µM (inactive) | > 100 µM (inactive) | > 100 µM (inactive) | 33.5 µM (inactive) |  | 
[O-][S+](CC1(O)CCCCC1)c1ccccc1 (configuration not stated) | > 100 µM (inactive) | > 100 µM (inactive) | > 100 µM (inactive) | > 100 µM (inactive) | > 100 µM (inactive) | > 100 µM (inactive) |  | > 100 µM (inactive) | > 100 µM (inactive) | > 100 µM (inactive) | > 100 µM (inactive) | > 100 µM (inactive) | > 100 µM (inactive) | > 100 µM (inactive) |  | > 100 µM (inactive) | > 100 µM (inactive) | > 100 µM (inactive) | > 100 µM (inactive) | 
N#C[C@H]1C(=O)C(c2nc3ccccc3[nH]2)S[C@H]1c1ccccc1 (some centres not stated) | 22.6 µM (inactive) | 28.8 µM (inactive) | 85.3 µM (inactive) | 33.3 µM (inactive) | 34.2 µM (inactive) |  | 22.1 µM (inactive) | 47.1 µM (inactive) | 45.1 µM (inactive) |  | 26.9 µM (inactive) | 28.9 µM (inactive) | 51.5 µM (inactive) | 92.9 µM (inactive) |  | 50 µM (inactive) | 28.4 µM (inactive) | 25.4 µM (inactive) | 45.4 µM (inactive) | 
OC(CCNCc1ccccc1)c1ccc2ccccc2c1 (configuration not stated) | 16.9 µM (inactive) | 35.6 µM (inactive) | 23.8 µM (inactive) | 36.1 µM (inactive) | 28.4 µM (inactive) | 20.3 µM (inactive) | 19.4 µM (inactive) |  | 18.3 µM (inactive) | 17.4 µM (inactive) | 16 µM (inactive) | 34.8 µM (inactive) | 20.7 µM (inactive) | 30.7 µM (inactive) | 16.9 µM (inactive) | 36.2 µM (inactive) | 24.9 µM (inactive) | 19.5 µM (inactive) | 23.7 µM (inactive) | 
C/C=C1\CC(C(=O)OCC)CCCCCCCCCCC1=O (configuration not stated) | 55.2 µM (inactive) |  | 25.1 µM (inactive) | > 100 µM (inactive) | 55.5 µM (inactive) | 47.9 µM (inactive) | > 100 µM (inactive) | > 100 µM (inactive) | 54.3 µM (inactive) | 58.6 µM (inactive) | 37.3 µM (inactive) | 41.5 µM (inactive) | > 100 µM (inactive) | > 100 µM (inactive) | > 100 µM (inactive) |  | 32.8 µM (inactive) | 36.6 µM (inactive) | 69.2 µM (inactive) | 29.4 µM (inactive)
Cc1ccc(-c2cc[n+]3c(n2)oc2ccccc23)cc1 | 36.7 µM (inactive) | 11 µM (inactive) |  | 25.9 µM (inactive) | 16 µM (inactive) |  | 19.1 µM (inactive) | 33.6 µM (inactive) | 51.8 µM (inactive) | 75.2 µM (inactive) | 67.3 µM (inactive) | 26.4 µM (inactive) | 12.4 µM (inactive) | 39.7 µM (inactive) | 25.1 µM (inactive) | 30.5 µM (inactive) | 30.8 µM (inactive) | 10.8 µM (inactive) | 69.8 µM (inactive) | 31.6 µM (inactive)
COc1ccc(OC)c([N+](=O)[O-])c1-c1nc2sc(C)c(C)n2c1/C=N/N=C(N)N | 49.7 µM (inactive) | 62.4 µM (inactive) | > 100 µM (inactive) | 76.7 µM (inactive) | 95.7 µM (inactive) | 40.8 µM (inactive) | > 100 µM (inactive) |  | > 100 µM (inactive) | 76.7 µM (inactive) | > 100 µM (inactive) | > 100 µM (inactive) | 29.9 µM (inactive) | > 100 µM (inactive) | > 100 µM (inactive) | 46.3 µM (inactive) | 24 µM (inactive) | 25.6 µM (inactive) | 36.3 µM (inactive) | 
COc1cc(OC)c(-c2oc3ccccc3c(=O)c2O)c(OC)c1 | 3.84 µM (inactive) | 3.69 µM (inactive) | > 100 µM (inactive) | 2.55 µM (inactive) | 0.237 µM (active) | 5.69 µM (inactive) | 3.27 µM (inactive) | 5.94 µM (inactive) |  | > 20.7 µM (inactive) | > 62.7 µM (inactive) | 39.4 µM (inactive) | 3.08 µM (inactive) | > 100 µM (inactive) | 8.73 µM (inactive) | 0.586 µM (active) | 6.25 µM (inactive) | 2.43 µM (inactive) | > 57.1 µM (inactive) | 0.867 µM (active)
